“Also recorded” adds a separate entry of the source. Structures can show the parent of a compound that is named as a salt.
Key:
BV-2 cells [1] = assay: AhR blockade of metabolite-induced changes in BV-2 microglia; format: cell-based, mouse; conditions: metabolite cocktail 32 ug/mL each plus CH223191 5 uM, 5 days
Experimental: FIG. 28. […] Results of AhR blockade on metabolite-induced proliferation and cell surface profile changes in BV-2 microglia. BV-2 cells were treated with vehicle (DMSO), metabolite cocktail (32 ug/mL of each metabolite), or metabolite cocktail with the AhR inhibitor CH223191 (5 uM final concentration in DMSO) for 5 days before performing the same analysis as in slide 5 (CSF1R and F4/80 or Ki67 staining). While the increase in F4/80 and CSF1R intensity is dependent on intact AhR signaling (top row), AhR signaling is dispensable for metabolite-induced proliferation (bottom row). Each bar is the average of 4 separate wells+/−SEM. P-vales calculated using two-way ANOVA.

BV-2 cells [2] = assay: BV-2 phagocytosis assay with apoptotic N2A bait cells (CypHer5); format: cell-based, mouse; conditions: metabolite cocktail plus CH223191 5 uM
Source text: FIG. 32. Outline of phagocytosis assay in BV-2 cells. Briefly, apoptotic N2A cells (“bait”) are generated by UV irradiation and loaded with the pH sensitive dye CypHer5 before co-culture with Hoechst stained BV-2 cells. After washing, BV-2 cells are the collected and analyzed by flow cytometry.
FIG. 33. […] Each bar is the average of 4 separate wells +/−SEM. P-vales calculated using two-way ANOVA.
Finally, we asked whether treatment with metabolites altered the ability of BV-2 microglia to engulf apoptotic N2A cells as outlined above. In this assay the phagocytes (in this case BV-2 cells) are treated with metabolites or vehicle for 120 h and then loaded with Hoechest dye. N2A cells are killed with UV radiation (confirmed by staining with viability dyes and Annexin V to distinguish apoptotic from necrotic cells) and then loaded with the pH sensitive dye CypHer5 which only fluoresces in the phagolysosome. They are then fed to BV-2 cells for a predetermined length of time (5:1 ratio of N2A to BV-2, 1 h of eating) before being harvested and analyzed by flow cytometry (FIG. 32).

[3] = test system: BV-2 immortalized mouse microglia; assay: Metabolite time course in BV-2 microglia (Ki67 proliferation, CSF1R and F4/80 surface staining); format: cell-based; conditions: BV-2 cells, 32 ug/mL of each compound; for proliferation (percent Ki67+ cells): 5 days (120 h); for CSF1R cell surface staining intensity (MFI) / F4/80 cell surface staining intensity (MFI): 5 days
Experimental: FIG. 26. Representation of the outline of metabolite time course experiment utilizing BV-2 immortalized mouse microglia. BV-2 cells are plated with either media alone, or with a cocktail of the 4 metabolites identified in slide 1 at a final concentration of 32 ug/mL of each compound at the indicated time points. Cells are then harvested and stained using conventional methods for either cell surface markers or the proliferation marker Ki67.
FIG. 27. Metabolite treatment increases proliferative capacity and alters the cell surface profile of BV-2 cells. Results of metabolite time course in BV-2 cells. […] Each bar is the average of 4 separate wells+/−SEM. P-vales calculated using two-way ANOVA.
FIG. 29. […] In order to test the ability of the AhR ligand indoxyl sulfate in BV-2 microglia, cells were treated for 5 days with either a cocktail of metabolites or with indoxyl sulfate (32 ug/mL of all compounds tested). […] Each bar is the average of 4 separate wells+/−SEM. P-vales calculated using two-way ANOVA.
Purified cultures, or immortalized equivalents were used. The cells were treated with a cocktail of the 4 metabolites to evaluate microglial response to metabolite treatment (FIG. 26). […] There is a relatively linear effect with increasing proportions of proliferation or F4/80, CSF1R high cells with increasing exposure to the metabolite cocktail.
We next asked if individual metabolites were responsible for the biological activity of the metabolite cocktail or whether multiple metabolites were required.

| SMILES | metabolite-induced increase in CSF1R intensity under AhR inhibition (BV-2 cells [1]) | metabolite-induced increase in F4/80 intensity under AhR inhibition (BV-2 cells [1]) | metabolite-induced proliferation (Ki67) under AhR inhibition (BV-2 cells [1]) | metabolite-induced phagocytosis under AhR inhibition (BV-2 cells [2]) | metabolite-induced phagocytosis under AhR inhibition (BV-2 cells [2]; listed as Met+CH) | proliferation (percent Ki67+ cells) [3] | proliferation (percent Ki67+ cells) ([3]; listed as IS) | CSF1R cell surface staining intensity (MFI) [3] | F4/80 cell surface staining intensity (MFI) [3] | CSF1R cell surface staining intensity (MFI) ([3]; listed as IS) | F4/80 cell surface staining intensity (MFI) ([3]; listed as IS) |
| --- | --- | --- | --- | --- | --- | --- | --- | --- | --- | --- | --- |
| Cc1ccccc1N=Nc1ccc(NC(=O)c2ccnn2C)c(C)c1 [CH223191] | required for the upregulation of CSF1R and F4/80; also recorded: reduces metabolite induced changes in surface markers | required for the upregulation of CSF1R and F4/80; also recorded: reduces metabolite induced changes in surface markers | dispensable for enhancement of proliferation; also recorded: does not change proliferation | significance is abolished | NOT dependent on AhR signaling | – | – | – | – | – | – |
| O=S(=O)(O)Oc1c[nH]c2ccccc12 [indoxyl sulfate] | – | – | – | – | – | nor does it increase the proliferative capacity | unable to significantly change either cell surface levels of F4/80 or CSF1R or to increase proliferation | does not increase CSF1R or F4/80 protein staining intensity | does not increase CSF1R or F4/80 protein staining intensity | unable to significantly change | unable to significantly change |

Reference: patent US20230026402A1, “MICROBIOTA BASED THERAPIES TO PROMOTE MENTAL HEALTH” (Cornell University, priority 2019, published 2023)
